A compilation of properties of binary mixtures (doi:10.1007/s10953-014-0137-8)

Assay: xn = mol fraction of the nth substance listed
Conditions: 101 kPa

CCCC[n+]1ccn(C)c1.F[B-](F)(F)F + O
Conditions | electrical conductivity [S/m] | speed of sound [m/s]
293.15 K, x2 = 0.0964 | – | 1580.4
293.15 K, x2 = 0.2639 | – | 1586.2
293.15 K, x2 = 0.3058 | 1 | –
293.15 K, x2 = 0.3901 | – | 1590.2
293.15 K, x2 = 0.4991 | 1.67 | –
293.15 K, x2 = 0.5121 | – | 1596.5
293.15 K, x2 = 0.6369 | – | 1601.7
293.15 K, x2 = 0.7002 | 3.02 | 1606.4
293.15 K, x2 = 0.7456 | – | 1608.6
293.15 K, x2 = 0.7866 | – | 1609.7
293.15 K, x2 = 0.9 | – | 1602.3
293.15 K, x2 = 0.9001 | 4.22 | –
293.15 K, x2 = 0.9252 | 4.41 | 1593.6
293.15 K, x2 = 0.9496 | 4.31 | 1581.6
293.15 K, x2 = 0.9744 | 3.76 | 1559.6
298.15 K, x2 = 0.1014 | 0.595 | –
298.15 K, x2 = 0.2639 | – | 1574.3
298.15 K, x2 = 0.3058 | 1.18 | –
298.15 K, x2 = 0.3901 | – | 1579.2
298.15 K, x2 = 0.4991 | 1.97 | –
298.15 K, x2 = 0.5121 | – | 1585.1
298.15 K, x2 = 0.6369 | – | 1591.6
298.15 K, x2 = 0.7002 | 3.41 | 1596.4
298.15 K, x2 = 0.7456 | – | 1598.6
298.15 K, x2 = 0.7866 | – | 1600.5
298.15 K, x2 = 0.9 | – | 1598.5
298.15 K, x2 = 0.9001 | 4.74 | –
298.15 K, x2 = 0.9252 | 5.3 | 1592.2
298.15 K, x2 = 0.9744 | 4.22 | 1564.4
303.15 K, x2 = 0.0964 | – | 1557.7
303.15 K, x2 = 0.1014 | 0.709 | –
303.15 K, x2 = 0.2639 | – | 1563
303.15 K, x2 = 0.3058 | 1.36 | –
303.15 K, x2 = 0.3901 | – | 1567.7
303.15 K, x2 = 0.4991 | 2.2 | –
303.15 K, x2 = 0.5121 | – | 1573.8
303.15 K, x2 = 0.6369 | – | 1581.8
303.15 K, x2 = 0.7002 | 3.97 | 1586.6
303.15 K, x2 = 0.7456 | – | 1590.2
303.15 K, x2 = 0.7866 | – | 1592.6
303.15 K, x2 = 0.8493 | 5.68 | 1595.5
303.15 K, x2 = 0.9001 | 5.67 | –
303.15 K, x2 = 0.9496 | 5.39 | 1582.7
303.15 K, x2 = 0.9744 | 4.9 | 1567.9
308.15 K, x2 = 0.0964 | – | 1545.7
308.15 K, x2 = 0.1014 | 0.848 | –
308.15 K, x2 = 0.2639 | – | 1551
308.15 K, x2 = 0.3058 | 1.51 | –
308.15 K, x2 = 0.3901 | – | 1556.3
308.15 K, x2 = 0.4991 | 2.51 | –
308.15 K, x2 = 0.5121 | – | 1561.8
308.15 K, x2 = 0.7866 | – | 1582.8
308.15 K, x2 = 0.8493 | 6.09 | 1587.5
308.15 K, x2 = 0.9 | – | 1588.3
308.15 K, x2 = 0.9001 | 6.39 | –
308.15 K, x2 = 0.9252 | 6.6 | 1586
308.15 K, x2 = 0.9496 | 6.32 | 1581.6
308.15 K, x2 = 0.9744 | 5.08 | 1570.2
313.15 K, x2 = 0.0964 | – | 1534.6
313.15 K, x2 = 0.2639 | – | 1539.6
313.15 K, x2 = 0.3058 | 1.76 | –
313.15 K, x2 = 0.3901 | – | 1544.9
313.15 K, x2 = 0.4991 | 2.79 | –
313.15 K, x2 = 0.5121 | – | 1550.6
313.15 K, x2 = 0.6369 | – | 1559
313.15 K, x2 = 0.7002 | 4.67 | 1565
313.15 K, x2 = 0.7456 | – | 1569.3
313.15 K, x2 = 0.7866 | – | 1573.2
313.15 K, x2 = 0.9 | – | 1582.1
313.15 K, x2 = 0.9001 | 6.94 | –
313.15 K, x2 = 0.9252 | 7.12 | 1581.6
313.15 K, x2 = 0.9496 | 6.65 | 1579.4
318.15 K, x2 = 0.1014 | 1.12 | –
318.15 K, x2 = 0.4991 | 3.1 | –
318.15 K, x2 = 0.5121 | – | 1539.3
318.15 K, x2 = 0.7002 | 5.29 | 1554
318.15 K, x2 = 0.7456 | – | 1558.4
318.15 K, x2 = 0.7866 | – | 1562
318.15 K, x2 = 0.8493 | 7.3 | 1570.2
318.15 K, x2 = 0.9001 | 7.66 | –
318.15 K, x2 = 0.9252 | 7.99 | 1576.4
318.15 K, x2 = 0.9496 | 7.34 | 1576.4
318.15 K, x2 = 0.9744 | 6.16 | 1571.6
323.15 K, x2 = 0.0964 | – | 1511.5
323.15 K, x2 = 0.1014 | 1.37 | –
323.15 K, x2 = 0.2639 | – | 1516.4
323.15 K, x2 = 0.3058 | 2.3 | –
323.15 K, x2 = 0.3901 | – | 1522.1
323.15 K, x2 = 0.4991 | 3.31 | –
323.15 K, x2 = 0.5121 | – | 1528
323.15 K, x2 = 0.6369 | – | 1534.5
323.15 K, x2 = 0.7002 | 5.74 | 1542.4
323.15 K, x2 = 0.7456 | – | 1546.8
323.15 K, x2 = 0.7866 | – | 1552.2
323.15 K, x2 = 0.9 | – | 1567.8
323.15 K, x2 = 0.9001 | 8.59 | –
323.15 K, x2 = 0.9252 | 8.71 | 1570.5
